# From the supplement of paper PMC12076712
# Key:
# Experiment in all cases: pIC50, kinobeads binding competition
# [1] = biological target: PIM1 (UniProt P11309); settings: cell material: Lysate mix
# Summary of the method: (§1)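 pIC50 was obtained by fitting fold changes against vehicle to logistic dose-response curves with the R drc package, using biological duplicates. Kinobeads-bound proteins were digested and measured by TMT10 LC-MS/MS. Before this, either living Jurkat cells received nine compound concentrations (top 30 μM, 1:4 steps) for 60 min at 37 °C prior to lysis, or Jurkat lysate or a 1:1:1:1 HEK293/K-562/HepG2/placenta lysate mix received nine concentrations (top 30 μM, 1:5 steps) for 60 min at 4 °C.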
# [2] = biological target: T1, BMPR2 (UniProt Q13873)
# T1 sequence (whole entry): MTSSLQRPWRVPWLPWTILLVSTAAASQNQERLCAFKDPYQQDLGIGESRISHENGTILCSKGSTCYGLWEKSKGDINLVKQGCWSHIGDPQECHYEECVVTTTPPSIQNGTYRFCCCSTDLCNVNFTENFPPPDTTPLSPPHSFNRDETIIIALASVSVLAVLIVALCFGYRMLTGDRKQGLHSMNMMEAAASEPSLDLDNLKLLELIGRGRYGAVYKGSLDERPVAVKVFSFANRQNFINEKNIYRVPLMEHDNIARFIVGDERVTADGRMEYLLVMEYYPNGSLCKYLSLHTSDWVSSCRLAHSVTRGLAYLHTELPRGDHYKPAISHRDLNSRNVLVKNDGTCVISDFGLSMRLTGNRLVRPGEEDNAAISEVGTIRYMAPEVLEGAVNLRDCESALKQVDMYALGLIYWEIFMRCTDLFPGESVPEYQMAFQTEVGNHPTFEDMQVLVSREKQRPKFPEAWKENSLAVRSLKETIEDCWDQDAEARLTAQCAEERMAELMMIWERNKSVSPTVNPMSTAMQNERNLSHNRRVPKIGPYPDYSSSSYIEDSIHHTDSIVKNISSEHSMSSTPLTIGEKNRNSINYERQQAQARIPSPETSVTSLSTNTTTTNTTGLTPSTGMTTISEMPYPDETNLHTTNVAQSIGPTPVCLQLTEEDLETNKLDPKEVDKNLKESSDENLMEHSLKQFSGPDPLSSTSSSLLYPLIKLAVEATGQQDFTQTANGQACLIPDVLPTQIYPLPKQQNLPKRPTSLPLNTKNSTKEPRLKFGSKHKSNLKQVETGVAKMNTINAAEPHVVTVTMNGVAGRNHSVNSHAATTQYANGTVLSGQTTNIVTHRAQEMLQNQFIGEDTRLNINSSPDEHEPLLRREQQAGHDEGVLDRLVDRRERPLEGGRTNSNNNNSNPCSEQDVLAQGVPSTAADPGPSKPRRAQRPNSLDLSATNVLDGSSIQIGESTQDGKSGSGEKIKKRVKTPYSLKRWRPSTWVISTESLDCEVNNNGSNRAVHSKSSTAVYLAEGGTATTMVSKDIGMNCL
# Summary of the method: as §1
# [3] = biological target: T2, UniProt Q13163
# T2 sequence (whole entry): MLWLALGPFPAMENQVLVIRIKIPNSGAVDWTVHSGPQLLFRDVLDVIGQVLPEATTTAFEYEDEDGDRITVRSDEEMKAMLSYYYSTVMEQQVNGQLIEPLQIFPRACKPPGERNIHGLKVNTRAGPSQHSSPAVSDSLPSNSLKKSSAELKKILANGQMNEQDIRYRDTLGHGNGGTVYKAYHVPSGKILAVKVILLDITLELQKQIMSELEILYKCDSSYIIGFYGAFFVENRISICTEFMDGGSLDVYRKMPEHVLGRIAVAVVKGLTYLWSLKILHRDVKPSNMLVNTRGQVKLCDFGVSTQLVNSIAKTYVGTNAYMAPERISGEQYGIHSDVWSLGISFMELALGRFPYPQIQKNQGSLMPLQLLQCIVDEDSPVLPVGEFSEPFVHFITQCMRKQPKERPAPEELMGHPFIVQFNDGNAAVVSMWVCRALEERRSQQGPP
# Summary of the method: as §1
# [4] = biological target: TESK1 (UniProt Q15569)
# Summary of the method: as §1
# [5] = biological target: UniProt Q8N4C8
# Summary of the method: as §1
# [6] = biological target: T3, EPHB6 (UniProt O15197)
# T3 sequence (whole entry): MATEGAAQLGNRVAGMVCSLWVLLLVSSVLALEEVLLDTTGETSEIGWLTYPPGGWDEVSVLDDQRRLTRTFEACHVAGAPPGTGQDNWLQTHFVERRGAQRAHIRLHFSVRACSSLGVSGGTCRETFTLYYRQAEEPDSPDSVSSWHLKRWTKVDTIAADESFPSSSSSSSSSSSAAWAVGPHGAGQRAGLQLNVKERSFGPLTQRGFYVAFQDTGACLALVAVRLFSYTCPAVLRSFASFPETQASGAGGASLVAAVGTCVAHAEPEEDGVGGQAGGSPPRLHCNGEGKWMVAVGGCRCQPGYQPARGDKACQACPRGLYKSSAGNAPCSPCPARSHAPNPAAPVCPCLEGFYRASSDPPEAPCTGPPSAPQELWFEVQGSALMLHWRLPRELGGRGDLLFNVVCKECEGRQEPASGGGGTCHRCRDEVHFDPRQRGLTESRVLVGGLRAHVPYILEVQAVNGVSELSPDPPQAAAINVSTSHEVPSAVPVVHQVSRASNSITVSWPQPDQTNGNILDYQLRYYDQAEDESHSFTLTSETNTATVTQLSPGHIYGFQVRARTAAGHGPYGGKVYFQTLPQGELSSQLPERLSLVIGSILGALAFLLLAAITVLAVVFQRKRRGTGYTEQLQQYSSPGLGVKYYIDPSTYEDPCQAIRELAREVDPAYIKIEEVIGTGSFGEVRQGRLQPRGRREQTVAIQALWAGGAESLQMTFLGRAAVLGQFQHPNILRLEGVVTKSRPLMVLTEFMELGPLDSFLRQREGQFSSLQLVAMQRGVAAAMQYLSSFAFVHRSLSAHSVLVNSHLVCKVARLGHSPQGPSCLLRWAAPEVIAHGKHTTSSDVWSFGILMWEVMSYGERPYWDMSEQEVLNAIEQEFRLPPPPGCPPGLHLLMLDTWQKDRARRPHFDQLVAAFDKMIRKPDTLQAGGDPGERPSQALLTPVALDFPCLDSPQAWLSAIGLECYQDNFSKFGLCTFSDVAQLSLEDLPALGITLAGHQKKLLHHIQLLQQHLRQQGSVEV
# Summary of the method: as §1
# [7] = biological target: UniProt Q13233
# Summary of the method: as §1
# [8] = biological target: NEK7 (UniProt Q8TDX7)
# Summary of the method: as §1
Structure (SMILES),pIC50 [1],pIC50 ([2]; cell material: Lysate mix),pIC50 ([3]; cell material: Lysate mix),pIC50 ([4]; cell material: Lysate mix),pIC50 ([5]; cell material: Lysate mix),pIC50 ([6]; cell material: Lysate mix),pIC50 ([7]; cell material: Lysate mix),pIC50 ([8]; cell material: Lysate mix),pIC50 ([2]; cell material: Jurkat cells),pIC50 ([2]; cell material: Jurkat lysate),pIC50 ([3]; cell material: Jurkat cells),pIC50 ([3]; cell material: Jurkat lysate),pIC50 ([4]; cell material: Jurkat lysate),pIC50 ([5]; cell material: Jurkat cells),pIC50 ([5]; cell material: Jurkat lysate),pIC50 ([6]; cell material: Jurkat cells),pIC50 ([6]; cell material: Jurkat lysate),pIC50 ([7]; cell material: Jurkat lysate),pIC50 ([8]; cell material: Jurkat cells),pIC50 ([8]; cell material: Jurkat lysate),pIC50 ([4]; cell material: Jurkat cells),pIC50 ([7]; cell material: Jurkat cells)
CCNC(=O)c1cc(Nc2cc(C)[nH]n2)nc(N2CCN(Cc3ccc(S(=O)(=O)F)cc3)CC2)n1,< 4.52,< 4.52,4.73,< 4.52,< 4.52,< 4.52,< 4.52,< 4.52,–,–,–,–,–,–,–,–,–,–,–,–,–,–
CCNC(=O)c1cc(Nc2cc(C3CC3)[nH]n2)nc(N2CCN(Cc3ccc(S(=O)(=O)F)cc3)CC2)n1,< 4.52,< 4.52,5.28,< 4.52,< 4.52,< 4.52,< 4.52,< 4.52,–,–,–,–,–,–,–,–,–,–,–,–,–,–
Cc1cc(Nc2cc(C(=O)NCCNC(=O)OC3CC/C=C/CCC3)nc(N3CCN(Cc4ccc(S(=O)(=O)F)cc4)CC3)n2)n[nH]1 (stereo not drawn),< 4.52,< 4.52,< 4.52,< 4.52,< 4.52,< 4.52,< 4.52,< 4.52,–,–,–,–,–,–,–,–,–,–,–,–,–,–
C#CCNC(=O)c1cc(Nc2cc(C3CC3)[nH]n2)nc(N2CCN(Cc3ccc(S(=O)(=O)F)cc3)CC2)n1,< 4.52,< 4.52,5.42,< 4.52,< 4.52,< 4.52,< 4.52,< 4.52,5.72,< 4.52,5.71,4.88,< 4.52,5.72,< 4.52,5.28,< 4.52,< 4.52,6.88,< 4.52,–,–
C#CCNC(=O)c1cc(Nc2cc(C)[nH]n2)nc(N2CCN(Cc3ccc(S(=O)(=O)F)cc3)CC2)n1,< 4.52,< 4.52,4.64,< 4.52,< 4.52,< 4.52,< 4.52,< 4.52,–,–,–,–,–,–,–,–,–,–,–,–,–,–
O=C(NCCNC(=O)c1cc(Nc2cc(C3CC3)[nH]n2)nc(N2CCN(Cc3ccc(S(=O)(=O)F)cc3)CC2)n1)OC1CC/C=C/CCC1 (stereo not drawn),< 4.52,< 4.52,< 4.52,< 4.52,< 4.52,–,< 4.52,< 4.52,< 4.52,< 4.52,4.99,< 4.52,< 4.52,5.12,< 4.52,< 4.52,< 4.52,< 4.52,6.85,< 4.52,< 4.52,< 4.52
